Experimental data from the CheMixHub viscosity set.

Test: xn = mol fraction of the nth substance listed
Conditions: 101.33 kPa

CC(N)CN (stereo not given) + OCCO
viscosity [mPa·s]
Conditions	298.15 K	303.15 K	308.15 K	313.15 K	318.15 K
x2 = 0.0513	1.89	1.66	1.4	1.33	1.23
x2 = 0.1024	2.46	2.17	1.8	1.69	1.53
x2 = 0.1534	3.22	2.9	2.34	2.19	1.98
x2 = 0.2043	4.66	3.91	3.1	2.84	2.51
x2 = 0.255	6.47	5.31	4.14	3.73	3.23
x2 = 0.3056	9.02	7.28	5.57	4.91	4.28
x2 = 0.356	12.47	9.89	7.43	6.42	5.39
x2 = 0.4064	17.12	13.17	9.78	8.33	6.89
x2 = 0.4566	22.35	17	12.38	10.39	8.36
x2 = 0.5066	27.55	20.91	15.09	12.54	10
x2 = 0.5565	32.68	24.47	17.48	14.47	11.46
x2 = 0.6063	36.17	26.99	19.26	15.91	12.62
x2 = 0.6556	37.44	28.04	20.15	16.67	13.25
x2 = 0.7055	36.53	27.76	20.09	16.66	13.32
x2 = 0.7549	34.46	26.24	19.07	15.99	12.78
x2 = 0.8042	32.78	24.03	17.71	14.9	11.97
x2 = 0.8533	28.17	21.54	15.99	13.67	11.17
x2 = 0.9024	24.94	18.68	14.07	12.16	10
x2 = 0.9512	20.88	16.21	12.23	10.67	8.83
